According to US20040001845A1, “Cytotoxic T-cell epitopes of HIV-1 virus” (priority 2002, published 2004):
Read-outs that look alike come from different tables or passages of the source.

Legend:
HLA-A11 = assay: Association of peptides with HLA allele A11 (recognition by individuals expressing HLA-A11); assay type: cell-based, human
[1] = test system: PBMC (HIV-1-specific CD8+ T cells) of subject AC-06; assay: IFN-γ Elispot assay of HIV-1-specific CD8+ T cell responses in subject AC-06; assay type: cell-based, human
[2] = subject AC-06, 0 months after infection
[3] = subject AC-06, 2 months after infection
[4] = subject AC-06, 6 months after infection
[5] = subject AC-06, 12 months after infection
[6] = subject AC-06, 18 months after infection
[7] = subject AC-06, 20 months after infection
[8] = subject AC-06, 24 months after infection
[9] = subject AC-06, 29.5 months after infection
[10] = subject AC-06, 34 months after infection

Sequence	HLA (association with HLA allele A11; recognized by individuals expressing HLA-A11) (HLA-A11)	HLA (association with HLA allele A11; recognized by individuals expressing HLA-A11) (HLA-A11; listed as SEQ ID NO: 11)	magnitude of HIV-1-specific CD8+ T cell responses at the single epitope level [1, 2]	magnitude of HIV-1-specific CD8+ T cell responses at the single epitope level [1, 3]	magnitude of HIV-1-specific CD8+ T cell responses at the single epitope level [1, 4]	magnitude of HIV-1-specific CD8+ T cell responses at the single epitope level [1, 5]	magnitude of HIV-1-specific CD8+ T cell responses at the single epitope level [1, 6]	magnitude of HIV-1-specific CD8+ T cell responses at the single epitope level [1, 7]	magnitude of HIV-1-specific CD8+ T cell responses at the single epitope level [1, 8]	magnitude of HIV-1-specific CD8+ T cell responses at the single epitope level [1, 9]	magnitude of HIV-1-specific CD8+ T cell responses at the single epitope level [1, 10]	HLA (association with HLA allele A11; recognized by individuals expressing HLA-A11) (HLA-A11; listed as SEQ ID NO: 5)	HLA (association with HLA allele A11; recognized by individuals expressing HLA-A11) (HLA-A11; listed as SEQ ID NO: 8)	HLA (association with HLA allele A11; recognized by individuals expressing HLA-A11) (HLA-A11; listed as SEQ ID NO: 6)
AVDLSHFLK [A3-ALK9]	All	recognized	0 SFC/Million PBMC	0 SFC/Million PBMC	0 SFC/Million PBMC	0 SFC/Million PBMC	0 SFC/Million PBMC	450 SFC/Million PBMC	350 SFC/Million PBMC	1200 SFC/Million PBMC	1100 SFC/Million PBMC			
AIFQSSMTK [A3-ATK9]	All		0 SFC/Million PBMC	0 SFC/Million PBMC	0 SFC/Million PBMC	0 SFC/Million PBMC	0 SFC/Million PBMC	0 SFC/Million PBMC	0 SFC/Million PBMC	290 SFC/Million PBMC	420 SFC/Million PBMC	recognized		
AVFIHNFKRK [A3-AK10]	All		0 SFC/Million PBMC	0 SFC/Million PBMC	0 SFC/Million PBMC	0 SFC/Million PBMC	0 SFC/Million PBMC	0 SFC/Million PBMC	0 SFC/Million PBMC	260 SFC/Million PBMC	120 SFC/Million PBMC		recognized	
HPVHAGPIA [B7-HA9]			0 SFC/Million PBMC	0 SFC/Million PBMC	0 SFC/Million PBMC	0 SFC/Million PBMC	0 SFC/Million PBMC	0 SFC/Million PBMC	0 SFC/Million PBMC	700 SFC/Million PBMC	360 SFC/Million PBMC			
FPRIWLHGL [B7-FL9]			0 SFC/Million PBMC	0 SFC/Million PBMC	0 SFC/Million PBMC	0 SFC/Million PBMC	0 SFC/Million PBMC	0 SFC/Million PBMC	210 SFC/Million PBMC	380 SFC/Million PBMC	960 SFC/Million PBMC			
RPMTYKAAL [B7-RL9]			0 SFC/Million PBMC	0 SFC/Million PBMC	0 SFC/Million PBMC	0 SFC/Million PBMC	0 SFC/Million PBMC	120 SFC/Million PBMC	180 SFC/Million PBMC	600 SFC/Million PBMC	360 SFC/Million PBMC			
ERILSTYLGR [A3-ER10]			0 SFC/Million PBMC	0 SFC/Million PBMC	0 SFC/Million PBMC	0 SFC/Million PBMC	0 SFC/Million PBMC	0 SFC/Million PBMC	310 SFC/Million PBMC	460 SFC/Million PBMC	1300 SFC/Million PBMC			
HMYISKKAK [A3-HK9]			0 SFC/Million PBMC	0 SFC/Million PBMC	0 SFC/Million PBMC	0 SFC/Million PBMC	0 SFC/Million PBMC	110 SFC/Million PBMC	320 SFC/Million PBMC	1000 SFC/Million PBMC	1600 SFC/Million PBMC			
SPAIFQSSM [B7-SM9]			0 SFC/Million PBMC	0 SFC/Million PBMC	0 SFC/Million PBMC	0 SFC/Million PBMC	0 SFC/Million PBMC	90 SFC/Million PBMC	130 SFC/Million PBMC	1400 SFC/Million PBMC	1000 SFC/Million PBMC			
QIYPGIKVR [A3-QR9]	All		0 SFC/Million PBMC	0 SFC/Million PBMC	0 SFC/Million PBMC	0 SFC/Million PBMC	0 SFC/Million PBMC	760 SFC/Million PBMC	1000 SFC/Million PBMC	1200 SFC/Million PBMC	840 SFC/Million PBMC			recognized
KTKPPLPSVKK [A3-KK11]			0 SFC/Million PBMC	0 SFC/Million PBMC	0 SFC/Million PBMC	0 SFC/Million PBMC	0 SFC/Million PBMC	150 SFC/Million PBMC	340 SFC/Million PBMC	600 SFC/Million PBMC	1200 SFC/Million PBMC			
TPQDLNTML [B7-TL9]			0 SFC/Million PBMC	0 SFC/Million PBMC	0 SFC/Million PBMC	0 SFC/Million PBMC	0 SFC/Million PBMC	0 SFC/Million PBMC	0 SFC/Million PBMC	740 SFC/Million PBMC	1300 SFC/Million PBMC			
